Results on 16 molecules are retold here after US20150353495A1 (PORTOLA PHARMACEUTICALS, INC., priority 2010, published 2015).

Molecules are shown by their SMILES.

Test [1] has as its system JAK1/3 signaling to STAT6 in Ramos B cells. Kind of test: IL4 stimulation of JAK1/3 signaling to STAT6 in Ramos B cells (pSTAT6 Y641, FACS). It is filed as cell-based. The following applies: Homo sapiens; for inhibition at 0.2 µM: 0.2 uM compound, read-out: IL-4/STAT6 in Ramos Percent Inhibition at 0.2 uM; for inhibition at 1 µM: 1.0 uM compound, read-out: IL-4/STAT6 in Ramos Percent Inhibition at 1.0 uM. The procedure, abridged:
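Ramos cells in 10% FCS medium were pre-treated 1 h with compound, stimulated 15 min with 15 ng IL4, fixed in 2% paraformaldehyde and methanol-permeabilized. Intracellular phospho-STAT6 Y641 was stained with PE-conjugated antibody and quantified by flow cytometry.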

The next test deals with T1, JAK3 (Homo sapiens, UniProt P52333).
T1 construct: 5 μl of catalytic domain recombinant Kinase enzyme+Tyr peptide substrate (Invitrogen, CA); purchased Invitrogen
T1 sequence (P52333 822-1111 limits assumed): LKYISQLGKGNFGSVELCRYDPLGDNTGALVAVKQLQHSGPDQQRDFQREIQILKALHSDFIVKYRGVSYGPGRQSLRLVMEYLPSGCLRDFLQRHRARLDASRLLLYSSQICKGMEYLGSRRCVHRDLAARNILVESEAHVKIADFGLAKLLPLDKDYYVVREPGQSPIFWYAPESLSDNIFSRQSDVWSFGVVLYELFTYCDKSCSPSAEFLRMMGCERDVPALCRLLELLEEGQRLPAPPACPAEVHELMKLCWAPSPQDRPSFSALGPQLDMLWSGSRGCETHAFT
Briefly: Z'-LYTE kinase assay JAK3. The class given is biochemical. The procedure, abridged:
(§1)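 Read-out is FRET fluorescence between coumarin and fluorescein on a Tyr6 peptide, lost when the development protease cleaves unphosphorylated substrate. Kinase reaction used recombinant catalytic domain with ATP, 1 h at room temperature, 1% DMSO.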

Test [2] relates to JAK1/3 signaling to STAT5 in primary T cells. Briefly: IL2 stimulation of JAK1/3 signaling to STAT5 in primary T cells (pSTAT5 Y694, FACS). It is filed as cell-based. The settings on record: T-cell; for inhibition at 0.2 µM: 0.2 uM compound, read-out: IL-2/STAT5 Percent Inhibition at 0.2 uM; for inhibition at 1 µM: 1.0 μM compound, read-out: IL-2/STAT5 Percent Inhibition at 1.0 μM. The method, then: IL2 Stimulation of JAK1/3 Signaling to STAT5 in Primary T Cells:
The effect of JAK inhibitors on cytokine signaling pathways utilizing JAK3 was determined using an IL2 stimulation assay. IL2 engages a receptor complex that contains the IL2 receptor alpha and beta subunits, and the common gamma chain, to initiate activation of JAK1 and JAK3 leading to phosphorylation of STAT5 at tyrosine position 694. Lymphocytes are isolated from heparinized whole blood over a ficoll gradient, then resuspended in tissue culture media containing 10% fetal calf serum at 10×10̂6 cells/ml. 100 μl aliquots are pre-treated for 1 hour with various concentrations of compound, and then stimulated for 12 minutes with 100 U/ml IL2. The signaling reaction is terminated by fixing in 2% paraformaldehyde for 10 minutes at room temperature. Fixed cells are then washed and permeablized by suspension in 50% methanol (in PBS) at −80° C. Following overnight incubation at 4° C., cells are washed and resuspended in PBS containing 0.5% bovine serum albumin containing CD3-APC and pSTAT5 Y694-PE conjugated antibodies. After 1 hour incubation, cells are washed and the extent of STAT5 phosphorlyation in T cells is measured by FACS analysis.

For the next test, the target named is T2, JAK1 (Homo sapiens, UniProt P23458).
T2 construct: 5 μl of catalytic domain recombinant Kinase enzyme+Tyr peptide substrate (Invitrogen, CA); purchased Invitrogen
T2 sequence (P23458 875-1153 limits assumed): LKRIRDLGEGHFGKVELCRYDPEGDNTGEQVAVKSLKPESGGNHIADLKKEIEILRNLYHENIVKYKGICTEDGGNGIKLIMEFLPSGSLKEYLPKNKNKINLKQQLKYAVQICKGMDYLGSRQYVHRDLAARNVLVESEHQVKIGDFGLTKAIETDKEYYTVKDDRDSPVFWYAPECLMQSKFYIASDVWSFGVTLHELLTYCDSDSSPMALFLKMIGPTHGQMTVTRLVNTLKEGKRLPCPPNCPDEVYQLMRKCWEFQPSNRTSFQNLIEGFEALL
Kind of test: Z'-LYTE kinase assay JAK1. The class given is biochemical. Summed up:
as §1

The next test concerns the target T3, TYK2 (Homo sapiens, UniProt P29597).
T3 construct: 5 μl of catalytic domain recombinant Kinase enzyme+Tyr peptide substrate (Invitrogen, CA); purchased Invitrogen
T3 sequence (P29597 897-1176 limits assumed): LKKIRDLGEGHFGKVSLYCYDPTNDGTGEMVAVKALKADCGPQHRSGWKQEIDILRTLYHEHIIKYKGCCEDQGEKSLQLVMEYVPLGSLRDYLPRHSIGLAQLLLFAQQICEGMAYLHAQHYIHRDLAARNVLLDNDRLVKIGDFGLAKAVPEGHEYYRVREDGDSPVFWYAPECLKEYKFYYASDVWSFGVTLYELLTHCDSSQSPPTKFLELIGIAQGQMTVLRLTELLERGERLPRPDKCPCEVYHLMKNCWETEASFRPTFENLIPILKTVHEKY
Briefly: Z'-LYTE kinase assay TYK2. It is filed as biochemical. The procedure, abridged:
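Recombinant catalytic-domain TYK2 with Tyr6 peptide in Z′-LYTE FRET format, 1% DMSO final, kinase reaction 1 h at room temperature, then protease development 1 h. Fluorescence read at 445/520 nm (excitation 400 nm), percent phosphorylation vs no-inhibitor control, IC50 from 4-parameter logistic fit.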

The target of the next test is T4, JAK2 (Homo sapiens, UniProt O60674).
T4 construct: 5 μl of catalytic domain recombinant Kinase enzyme+Tyr peptide substrate (Invitrogen, CA); purchased Invitrogen
T4 sequence (O60674 849-1124 limits assumed): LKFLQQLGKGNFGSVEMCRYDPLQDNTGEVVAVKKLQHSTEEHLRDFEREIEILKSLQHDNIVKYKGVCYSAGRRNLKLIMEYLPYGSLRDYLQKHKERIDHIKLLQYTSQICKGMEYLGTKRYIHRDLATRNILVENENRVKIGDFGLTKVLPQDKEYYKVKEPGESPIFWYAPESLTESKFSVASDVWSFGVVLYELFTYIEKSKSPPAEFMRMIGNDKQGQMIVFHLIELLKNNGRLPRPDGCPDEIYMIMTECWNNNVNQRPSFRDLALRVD
Briefly: Z'-LYTE kinase assay JAK2. The class given is biochemical. Summed up:
as §1

As to `NC(=O)c1cnc(Nc2cccc(OCCN3CCCC3)c2)cc1N[C@H](CO)c1ccccc1` [Example 59, (S)-4-(2-hydroxy-1-phenylethylamino)-6-(3-(2-(pyrrolidin-1-yl)ethoxy)phenylamino)nicotinamide], the inhibition at 0.2 µM in test [1] was found to be 11%; in test [2] it was 12%. Moreover, the inhibition at 1 µM in test [1] stood at 27%; in test [2], 50%. For the same molecule, the IC50 at JAK3 was 1 to 10 nM; against JAK1 it was more than 1000 nM; on TYK2, more than 1000 nM; at JAK2, 100 to 1000 nM.
`CC(=O)N1CCN(c2ccc(Nc3cc(NCc4cccc(F)c4F)c(C(N)=O)cn3)cc2)CC1` [Example 256, 6-(4-(4-acetylpiperazin-1-yl)phenylamino)-4-(2,3-difluorobenzylamino)nicotinamide]: the figures for the inhibition at 0.2 µM in test [1] and in test [2] were 37% and 69%, respectively. The inhibition at 1 µM in test [1] was found to be 64%; in test [2] it was 100%. Besides, the half-inhibitory concentration (IC50) on JAK3 fell in the range of 1 to 10 nM; against JAK1, 100 to 1000 nM; against TYK2 it was 100 to 1000 nM; against JAK2, 10 to 100 nM.
As to `NC(=O)c1cnc(Nc2ccc(N3CCOCC3)cc2)cc1NCc1cccc(F)c1` [Example 67, 4-(3-fluorobenzylamino)-6-(4-morpholinophenylamino)nicotinamide], the inhibition at 0.2 µM in test [1] worked out at 48%; in test [2], 61%. The inhibition at 1 µM in test [1] came to 69%; in test [2], 89%. Moreover, the 50% inhibitory concentration (IC50) at JAK3 fell in the range of 1 to 10 nM; at JAK1, 100 to 1000 nM; on TYK2, 100 to 1000 nM; at JAK2, 10 to 100 nM.
For the molecule `CS(=O)(=O)Nc1cccc(Nc2cc(NCc3ccccc3)c(C(N)=O)cn2)c1` [Example 388], the 50% inhibitory concentration (IC50) at JAK3 is 1 to 10 nM; on JAK1 it was 100 to 1000 nM; at TYK2 it was 100 to 1000 nM; on JAK2 it was 100 to 1000 nM. Moreover, the inhibition at 0.2 µM in test [2] amounted to 18%. The inhibition at 1 µM in test [2] was 55%.
For the molecule `COc1ccc(Nc2cc(NCc3cccc4ccsc34)c(C(N)=O)cn2)cc1` [Example 284, 4-(benzo[b]thiophen-7-ylmethylamino)-6-(4-methoxyphenylamino)nicotinamide], the 50% inhibitory concentration (IC50) against JAK3 is 10 to 100 nM; against JAK1, more than 1000 nM; on TYK2, more than 1000 nM; at JAK2, 100 to 1000 nM. For the same molecule, the inhibition at 0.2 µM in test [2] was 39%. In addition, in test [2], the inhibition at 1 µM came out at 75%.
As for `Cc1cc(Nc2cc(NCc3cccc4ccsc34)c(C(N)=O)cn2)ccc1C(=O)N1CCCC1` [Example 458, 4-(benzo[b]thiophen-7-ylmethylamino)-6-(3-methyl-4-(pyrrolidine-1-carbonyl)phenylamino)nicotinamide], the IC50 against JAK3 is 1 to 10 nM; on JAK1, 100 to 1000 nM; at TYK2 it was 10 to 100 nM; against JAK2, 10 to 100 nM. Also, the inhibition at 0.2 µM in test [2] worked out at 49%. Also, in test [2], the inhibition at 1 µM was 104%.
`CCC(=O)N1CCN(c2ccc(Nc3cc(NCc4cccc(F)c4F)c(C(N)=O)cn3)cc2)CC1` [Example 435, 4-(2,3-difluorobenzylamino)-6-(4-(4-propionylpiperazin-1-yl)phenylamino)nicotinamide]: the half-maximal inhibitory concentration (IC50) lay in the range of 1 to 10 nM on JAK3, 100 to 1000 nM against JAK1, 100 to 1000 nM against TYK2 and 10 to 100 nM on JAK2. In test [2], the inhibition at 0.2 µM came out at 63%. Besides, the inhibition at 1 µM in test [2] amounted to 102%.
In the case of `CS(=O)(=O)Nc1ccc(Nc2cc(NCc3ccccc3)c(C(N)=O)cn2)cc1` [Example 389], the IC50 on JAK3 was 1 to 10 nM; against JAK1, 100 to 1000 nM; against TYK2, 100 to 1000 nM; against JAK2 it was 100 to 1000 nM. Besides, in test [2], the inhibition at 0.2 µM was found to be 56%. In addition, the inhibition at 1 µM in test [2] came out at 88%.
Turning to `Cc1cc(Nc2cc(NCc3cccc4ccsc34)c(C(N)=O)cn2)ccc1C(=O)N(C)C` [Example 285, 4-(benzo[b]thiophen-7-ylmethylamino)-6-(4-(dimethylcarbamoyl)-3-methylphenylamino)nicotinamide], the IC50 at JAK3 is less than 1 nM; against JAK1 it was 10 to 100 nM; at TYK2, 100 to 1000 nM; against JAK2 it was 10 to 100 nM. Further, the inhibition at 0.2 µM in test [2] was 58%. Also, the inhibition at 1 µM in test [2] was 96%.
Regarding `Cc1cc(Nc2cc(NCc3cccc4cc[nH]c34)c(C(N)=O)cn2)ccc1C(=O)N1CCCC1` [Example 464, 4-((1H-indol-7-yl)methylamino)-6-(3-methyl-4-(pyrrolidine-1-carbonyl)phenylamino)nicotinamide], the IC50 at JAK3 was 1 to 10 nM; against JAK1, more than 1000 nM; on TYK2 it was more than 1000 nM; on JAK2, 10 to 100 nM. In addition, in test [2], the inhibition at 0.2 µM was found to be 22%. Moreover, in test [2], the inhibition at 1 µM stood at 55%.
For `CS(=O)(=O)c1ccc(Nc2cc(NCc3cccc4[nH]ccc34)c(C(N)=O)cn2)cc1` [Example 320, 4-((1H-indol-4-yl)methylamino)-6-(4-(methylsulfonyl)phenylamino)nicotinamide], the IC50 fell in the range of 1 to 10 nM at JAK3, 10 to 100 nM against JAK1, 10 to 100 nM against TYK2 and 10 to 100 nM against JAK2. In addition, the inhibition at 0.2 µM in test [2] came out at 90%. Besides, in test [2], the inhibition at 1 µM turned out to be 108%.
For `NC(=O)c1cnc(Nc2ccc(F)cc2)cc1NCc1cccc2[nH]ccc12` [Example 319, 4-((1H-indol-4-yl)methylamino)-6-(4-fluorophenylamino)nicotinamide], the IC50 fell in the range of 1 to 10 nM on JAK3, 100 to 1000 nM on JAK1, 100 to 1000 nM against TYK2 and 100 to 1000 nM against JAK2. The inhibition at 0.2 µM in test [2] turned out to be 81%. Moreover, the inhibition at 1 µM in test [2] was found to be 103%.
Consider `NC(=O)c1cnc(Nc2ccc(C3CCNCC3)cc2)cc1NCc1cccc(F)c1F` [Example 209, 4-(2,3-difluorobenzylamino)-6-(4-(piperidin-4-yl)phenylamino)nicotinamide], for which the IC50 at JAK3 was 1 to 10 nM; against JAK1 it was 100 to 1000 nM; at TYK2, 100 to 1000 nM; at JAK2 it was 10 to 100 nM. In addition, in test [2], the inhibition at 0.2 µM came out at 70%. Besides, the inhibition at 1 µM in test [2] came out at 99%.
As for `CCC(=O)N1CCC(c2ccc(Nc3cc(NCc4cccc5[nH]ccc45)c(C(N)=O)cn3)cc2)CC1` [Example 200, 4-((1H-indol-4-yl)methylamino)-6-(4-(1-propionylpiperidin-4-yl)phenylamino)nicotinamide], the concentration for half-maximal inhibition (IC50) fell in the range of 1 to 10 nM against JAK3, 10 to 100 nM against JAK1, 10 to 100 nM against TYK2 and 10 to 100 nM against JAK2. Further, in test [2], the inhibition at 0.2 µM is 77%. Besides, the inhibition at 1 µM in test [2] came to 103%.
As for `NC(=O)c1cnc(Nc2ccc(OC(F)(F)F)cc2)cc1NCc1cccc2[nH]ccc12` [Example 322, 4-((1H-indol-4-yl)methylamino)-6-(4-(trifluoromethoxy)phenylamino)nicotinamide], the half-maximal inhibitory concentration (IC50) was 100 to 1000 nM on JAK3, more than 1000 nM against JAK1, more than 1000 nM against TYK2 and more than 1000 nM on JAK2. Also, the inhibition at 0.2 µM in test [2] came to 27%. Besides, in test [2], the inhibition at 1 µM is 70%.
Consider `NC(=O)c1cnc(Nc2cccc(C(=O)N3CCC3)c2)cc1NCc1ccccc1` [Example 45, 6-(3-(azetidine-1-carbonyl)phenylamino)-4-(benzylamino)nicotinamide], for which the IC50 on JAK3 is 10 to 100 nM; against JAK1, 100 to 1000 nM; against TYK2, more than 1000 nM; against JAK2, 100 to 1000 nM. Besides, the inhibition at 0.2 µM in test [2] was determined as 22%. Besides, in test [2], the inhibition at 1 µM was determined as 25%.

Broadly, the IC50 is the concentration that inhibits the measured activity by half.
